The source of these data is ChEMBL document CHEMBL1124275, “Synthesis and evaluation of multisubstrate inhibitors of an oncogene-encoded tyrosine-specific protein kinase. 1” (J Med Chem, 1988).

Test [1] has as its target T1, Tyrosine-protein kinase transforming protein Abl (Abelson murine leukemia virus, UniProt P00521).
T1 sequence (P00521 whole entry): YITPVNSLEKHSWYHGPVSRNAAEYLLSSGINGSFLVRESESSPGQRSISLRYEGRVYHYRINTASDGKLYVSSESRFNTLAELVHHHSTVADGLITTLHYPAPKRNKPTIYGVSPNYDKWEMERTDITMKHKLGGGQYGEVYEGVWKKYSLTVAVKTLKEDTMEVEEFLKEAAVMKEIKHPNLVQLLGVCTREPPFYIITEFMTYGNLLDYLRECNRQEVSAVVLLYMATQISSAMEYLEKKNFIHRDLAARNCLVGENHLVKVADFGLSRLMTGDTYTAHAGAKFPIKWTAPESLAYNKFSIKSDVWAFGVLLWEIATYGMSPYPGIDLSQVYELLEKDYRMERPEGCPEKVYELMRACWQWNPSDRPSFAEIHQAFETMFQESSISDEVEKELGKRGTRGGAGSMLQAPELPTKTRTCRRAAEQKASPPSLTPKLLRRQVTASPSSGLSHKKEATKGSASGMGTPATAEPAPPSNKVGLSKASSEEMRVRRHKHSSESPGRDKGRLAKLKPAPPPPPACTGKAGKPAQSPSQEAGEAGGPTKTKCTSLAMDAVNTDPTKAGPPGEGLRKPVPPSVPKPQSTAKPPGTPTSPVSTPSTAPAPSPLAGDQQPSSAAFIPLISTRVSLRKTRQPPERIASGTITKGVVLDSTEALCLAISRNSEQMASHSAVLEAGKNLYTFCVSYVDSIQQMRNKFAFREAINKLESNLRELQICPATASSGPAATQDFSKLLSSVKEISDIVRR
The test is described as follows: Inhibition of p60-vabl tyrosine kinase isolated from Abelson murine leukemia virus (A-MuLV).

The nature of test [2]: Inhibition of Phosphorylase (serine) Kinase activity.

Structures are written as SMILES.

What is called IC50 is the midpoint of a concentration-inhibition curve. Higher therefore signals weaker potency in that assay. Consider `Nc1ncnc2c1ncn2[C@@H]1O[C@H](COC(=O)c2ccc(S(N)(=O)=O)cc2)[C@@H](O)[C@H]1O`, for which the values for the IC50 in test [1] and in test [2] were 120 µM and 60 µM, respectively.

`Nc1ncnc2c1ncn2[C@@H]1O[C@H](COC(=O)c2ccc(S(=O)(=O)Oc3ccccc3)cc2)[C@@H](O)[C@H]1O`: the IC50 in test [1] turned out to be 170 µM; in test [2] it was 80 µM. For `Nc1ncnc2c1ncn2[C@@H]1O[C@H](COC(=O)c2ccc(S(=O)(=O)Nc3ccccc3)cc2)[C@@H](O)[C@H]1O` the same measures were 19 µM and 25 µM. `Nc1ncnc2c1ncn2[C@@H]1O[C@H](COC(=O)c2ccc(S(=O)(=O)NCCc3ccccc3)cc2)[C@@H](O)[C@H]1O` returned an IC50 in test [1] of 50 µM. On the same count and under the same terms, under `Nc1ncnc2c1ncn2[C@@H]1O[C@H](COC(=O)c2ccc(S(=O)(=O)NCc3ccccc3)cc2)[C@@H](O)[C@H]1O` stands 45 µM; under `CS(=O)(=O)c1ccc(C(=O)OC[C@H]2O[C@@H](n3cnc4c(N)ncnc43)[C@H](O)[C@@H]2O)cc1`, 63 µM. Same read-out and setting: as for `CC(=O)NC(Cc1ccc(OS(=O)(=O)c2ccc(C(=O)OC[C@H]3O[C@@H](n4cnc5c(N)ncnc54)[C@H](O)[C@@H]3O)cc2)cc1)C(N)=O` (some centres undefined), the figure is 120 µM. For the molecule `Nc1ncnc2c1ncn2[C@@H]1O[C@H](COC(=O)c2ccc(S(=O)(=O)NCCCc3ccccc3)cc2)[C@@H](O)[C@H]1O`, the results for the IC50 in test [1] and in test [2] were 56 µM and 50 µM, respectively. For the molecule `Nc1ncnc2c1ncn2[C@@H]1O[C@H](COC(=O)c2ccc(S(=O)(=O)F)cc2)[C@@H](O)[C@H]1O`, the values for the IC50 in test [1] and in test [2] were 150 µM and 250 µM, respectively.
